From US5840740A, “Aminosterol compounds and a method of treating infection using the aminosterol compounds” (priority 1995, dated 1998)
In brackets after ≈: the same amount, converted by molar mass. Entries after “also recorded” stand apart in the source; their conditions may differ. Read-outs that look alike come from different tables or passages of the source.

Key:
S. aureus = experiment: Antibiotic activity (MIC); format: cell-based; conditions: Staphylococcus aureus
Xenopus tadpole = conditions: stage 59-60, 10 μg/ml; for pharmacological response in tadpole: in words
[1] = system: chick embryo vitelline capillaries; experiment: Chick embryo vitelline capillary regression assay; format: in vivo; parameters: key to vascular reactivity (capillary regression): +: Vascular reactivity; 0: No vascular reactivity; +/-: Equivocal reactivity; conditions: for Chick embryo diss. assay, Minimum Effective Concentration: Table II; for vascular reactivity (capillary regression): 60 min
Summary of the method: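 Each compound was applied onto 3-day chick embryos in 0.1 ml 15% Ficol 400 in PBS. Regression of vitelline capillaries was scored visually after 60 minutes.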

HM = HM MTT assay; format: cell-based; conditions: Table II, Minimum Effective Concentration
[2] = Hematological profile in L1210-inoculated mice; conditions: L1210 mice; cisplatin 8 mg/kg ip or compound 1436 10 mg/kg ip q4d
Description: C57B mice were inoculated with L1210 lymphoblastic leukemia cells at an inoculum that causes leukemia in 100% of animals.

HIV = experiment: Inhibition of HIV replication (P-24 Elisa); format: cell-based; conditions: 7 days
[3] = system: PHA-stimulated human lymphocytes; experiment: Inhibition of mitogen (PHA)-stimulated growth of human T-cells; format: cell-based; conditions: in words; 10 μg/ml
Text: Results are tabulated below.

[4] = Fasting blood glucose in mice; format: in vivo, mouse (male CD-1); conditions: i.v.; in words
Description: To study the effect of steroid administrator or the NHE responsible for secretion of insulin, several of the aminosterols from shark liver were administered to fasting mice. Male CD-1 mice were assigned to one of four treatment groups. Whole blood glucose was tested using glucometer (Lifescan Glucometer II and One Touch test strips). Statistical analysis was via one-way analysis of variance (ANOVA) followed by subsequent Bonferonni's t-test.

[5] = system: malignant tumors, endothelial cells and vascular smooth muscle cells; experiment: Inhibition of growth of a spectrum of cells; format: cell-based; conditions: in words
Text: (§1) As set forth in Table 7 below, all malignant tumors evaluated in tissue culture, endothelial cells and vascular smooth muscle cells were sensitive to inhibition. Thus, compound 1436 has application in the control of growth factor dependent proliferation of many types of tissue.

[6] = Growth and weight gain in mice; format: in vivo, mouse (C57B)
Description: Animals were dosed QTD (i.p.) starting on Day 1. […] Animals receiving 5 mg/kg QTD experienced about a 50% reduction in growth, compared to untreated controls, while animals receiving 1 mg/kg QTD were affected by about 10%. […] They appeared very much like hypophysectamized animals might appear.

rabbit NHE3 = rabbit NHE3 (Oryctolagus cuniculus, UniProt P26432); conditions: 10 μg/ml, acid preloaded
Description: For cells not acid-preloaded, the actual internal pH value was monitored as a function of time following addition of squalamine, with the results depicted in FIG. 1B.
PS120 fibroblasts transfected with rabbit NHE3 were grown and acid preloaded by exposure to 40 mM NH4 C1 as described above in conjunction with FIGS. 1A and 1B. Internal cellular pH changes expressed as the rate of pH recovery as a function of restored extracellular sodium ion concentration following exposure to 10 μg/ml of the compound were assayed with the fluorescent dye BCECF-AM as described above.

[7] = system: Human colon carcinoma HT29; experiment: Growth inhibition in vitro; format: cell-based; conditions: 10 μg/ml
Text: as §1

Murine L1210 leukemia = experiment: Growth inhibition in vitro; format: cell-based; conditions: 10 μg/ml
Text: as §1

Human melanoma WM 1617 = experiment: Growth inhibition in vitro; format: cell-based; conditions: 10 μg/ml
Text: as §1

[8] = system: Human microvascular endothelial cells; experiment: Growth inhibition in vitro; format: cell-based; conditions: 10 μg/ml
Text: as §1

Lewis lung carcinoma = experiment: Growth inhibition in vitro; format: cell-based; conditions: 10 μg/ml
Text: as §1

[9] = system: human umbilical venous endothelial cells; experiment: Growth inhibition in vitro; format: cell-based; conditions: 10 μg/ml
Text: as §1

[10] = system: Human ovarian carcinoma SKOV3; experiment: Growth inhibition in vitro; format: cell-based; conditions: 10 μg/ml
Text: as §1

Murine B16 melanoma = experiment: Growth inhibition in vitro; format: cell-based; conditions: 10 μg/ml
Text: as §1

[11] = system: Human coronary artery smooth muscle cells; experiment: Growth inhibition in vitro; format: cell-based; conditions: 10 μg/ml
Text: as §1

[12] = system: Human colon carcinoma SW948; experiment: Growth inhibition in vitro; format: cell-based; conditions: 10 μg/ml
Text: as §1

[13] = system: bovine pulmonary endothelial cells; experiment: Growth inhibition in vitro; format: cell-based; conditions: 10 μg/ml
Text: as §1

[14] = system: human coronary artery smooth muscle; experiment: Proliferation of human coronary artery smooth muscle in vitro; format: cell-based; conditions: in words (1436: about 11 μg/ml)
Text: Aminosterols of the invention may also have utility in inhibiting the growth factor mediated proliferation of smooth muscle within the artery. Following coronary angioplasty, reocclusion commonly occurs, secondary to reparative proliferation of the vascular smooth muscle within the wall of the surgically manipulated blood vessel. This process generally takes place over the course of 7-10 days. To evaluate whether an agent could prevent the growth factor mediated proliferation of smooth muscle within the artery, compound 1436 was evaluated in vitro for its effect on the proliferation of human coronary artery smooth muscle. Results for compound 1436 are shown in FIG. 13, and those for squalamine are shown in FIG. 14, with FIG. 15 being a composite logarithmic plot.

Xenopus laevis heart = experiment: Isolated frog heart beating ex vivo; conditions: 10 μg/ml, room temperature; about one hour without compound
Description: To determine if compound 1436 has such utility, the following experiment was performed. The heart of a juvenile Xenopus laevis frog was dissected from the living animal. The heart was placed into a Petri dish containing Krebs-Ringer buffer with adrenaline 50 μg/ml, and examined with the naked eye. At room temperature, the heart continued beating in a coordinated fashion (atrial beat followed by ventricular beat) for about one hour. In the presence of 10 μg/ml of compound 1436, spontaneous beating persisted up to 24 hours.

B16 melanoma = B16 melanoma growth in C57B mice; format: in vivo, mouse; conditions: squalamine 5 mg/kg/day; compound 1436 10 mg/kg/every 3 days
Description: The growth of B16 melanoma in C57B mice is dependent upon neovascularization.
Using the growth of B16 melanoma cells in C57B mice, a recognized model for the evaluation of inhibitors of angiogenesis on the growth of cancers, the effects of subcutaneous, intraperitoneal and oral administration of squalamine were evaluated.
In this model, there was observed little evidence of metastasis with or without treatment with chemotherapeutic agents.
Based on the idea that tumor growth involves both the clonal expansion of a malignant cell along with the development of a supporting vascular supply, a combination of compound 1436 with squalamine was tested to determine whether it would achieve a synergistic effect on solid tumor growth. This concept was evaluated in the B16 melanoma model.
Animals were implanted with B16 melanoma followed by treatment with compound 1436 or 1256 administered in a combined schedule or separately. […] Thus, a combination of these two compounds achieves a therapeutic benefit in tumors dependent on neovascularization that may prevent metastatic spread.

[15] = Arterial resistance / pressure in the rat; format: in vivo; conditions: 30 minutes; noradrenaline 40 μg
Description: A 200-g rat was catheterized in the right carotid artery, and the compound was introduced over a ten-second period to a total dosage of 5 mg/kg.
At that time, 40 μg of noradrenaline was introduced.

Chemical stability = format: physicochemical

Sequence of rabbit NHE3 (P26432 30-832): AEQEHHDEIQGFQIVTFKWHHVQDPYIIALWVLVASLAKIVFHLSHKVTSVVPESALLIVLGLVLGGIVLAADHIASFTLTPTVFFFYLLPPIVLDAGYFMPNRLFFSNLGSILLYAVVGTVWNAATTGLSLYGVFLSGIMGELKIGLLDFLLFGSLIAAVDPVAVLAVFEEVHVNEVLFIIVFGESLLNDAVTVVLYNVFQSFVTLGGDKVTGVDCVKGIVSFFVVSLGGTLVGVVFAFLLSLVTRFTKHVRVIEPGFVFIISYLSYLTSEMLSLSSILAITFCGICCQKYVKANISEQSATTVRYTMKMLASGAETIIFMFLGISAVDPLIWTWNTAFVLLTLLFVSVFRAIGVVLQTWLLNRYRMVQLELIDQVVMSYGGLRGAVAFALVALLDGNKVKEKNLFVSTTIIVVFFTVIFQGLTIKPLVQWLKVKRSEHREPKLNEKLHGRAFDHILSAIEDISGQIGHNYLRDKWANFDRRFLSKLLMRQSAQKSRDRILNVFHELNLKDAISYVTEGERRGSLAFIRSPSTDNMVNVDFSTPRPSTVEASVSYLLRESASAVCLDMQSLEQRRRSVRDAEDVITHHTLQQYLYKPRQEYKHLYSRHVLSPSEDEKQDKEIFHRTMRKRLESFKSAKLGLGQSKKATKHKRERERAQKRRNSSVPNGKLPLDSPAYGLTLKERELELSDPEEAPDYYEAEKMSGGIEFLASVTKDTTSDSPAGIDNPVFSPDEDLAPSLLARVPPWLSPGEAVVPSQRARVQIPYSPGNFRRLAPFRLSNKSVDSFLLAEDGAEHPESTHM

CC(COS(=O)(=O)O)C(=O)CC[C@@H](C)[C@H]1CC[C@H]2[C@@H]3[C@H](O)C[C@H]4C[C@@H](NCCCNCCCCN)CC[C@]4(C)[C@H]3CC[C@]12C (stereo partly drawn)
MIC (S. aureus): 8 µg/mL (≈ 12.5 µM)

CC(C)CCC[C@@H](C)[C@H]1CC[C@H]2[C@@H]3[C@H](O)C[C@H]4C[C@H](NCCCNCCCCN)CC[C@]4(C)[C@H]3CC[C@]12C [Compound 370]
pharmacological response in tadpole (Xenopus tadpole): pharmacologic activity similar to that seen for FX 3
Chick embryo diss. assay, Minimum Effective Concentration [1]: > 10 µg
minimal effective concentration (HM): 40 µg/mL

CC(C)[C@@H](CC[C@@H](C)[C@H]1CC[C@H]2[C@@H]3[C@H](O)C[C@H]4C[C@@H](NCCCNCCCCNCCCN)CC[C@]4(C)[C@H]3CC[C@]12C)OS(=O)(=O)O [Compound 1436]
RBC, Early Time [2]: 4.8 10^6 /mm^3
RBC, Late Time [2]: 8.8 10^6 /mm^3
WBC, Early Time [2]: 3.3 10^3 /mm^3
WBC, Late Time [2]: 3.7 10^3 /mm^3
P-24 Elisa (HIV; 0.5 μM): 40561
P-24 Elisa (HIV; 1 μM): 7464
P-24 Elisa (HIV; 5 μM): 3426
P-24 Elisa (HIV; 10 μM): 421
P-24 Elisa (HIV; 20 μM): 9
inhibition of blast transformation [3]: inhibited blast transformation most potently
hyperglycemia [4]: caused hyperglycemia in mice
growth inhibition of a broad spectrum of cells [5]: inhibit the growth of a very broad spectrum of cells
effect on growth of mice ([6]; 1 mg/kg QTD i.p.): about 10%
reduction in growth of mice ([6]; 5 mg/kg QTD i.p.): ~50%
growth suppression in mice ([6]; 10 mg/kg QTD i.p., about 1 month): almost completely inhibited
clinical health of treated mice ([6]; QTD i.p.): all were active, normally proportioned, not-cachectic, and in excellent apparent clinical health
suppression of growth and weight gain ([6]; in words, QTD i.p.): suppresses both linear growth and weight gain in growing mice in a dose-dependent fashion; also recorded: suppresses the growth of mice in a dose-dependent fashion
time to death (Xenopus tadpole): about 2 hours
pharmacological response in tadpole (Xenopus tadpole): Gradual reduction in overall activity. Heart beat remained strong, suggesting nervous system depression. Melanocytes over head and tail began to swell, first exhibiting visibly distinct nuclei, followed by rupture into fragments.
inhibition of rabbit NHE3 (rabbit NHE3): inhibit rabbit NHE3
inhibition of rabbit NHE3 (rabbit NHE3; listed as compound 1436): inhibitor of NHE3
growth inhibition in vitro [7]: INHIBITED
growth inhibition in vitro (Murine L1210 leukemia): INHIBITED
growth inhibition in vitro (Human melanoma WM 1617): INHIBITED
growth inhibition in vitro [8]: INHIBITED
growth inhibition in vitro (Lewis lung carcinoma): INHIBITED
growth inhibition in vitro [9]: INHIBITED
growth inhibition in vitro [10]: INHIBITED
growth inhibition in vitro (Murine B16 melanoma): INHIBITED
growth inhibition in vitro [11]: INHIBITED
growth inhibition in vitro [12]: INHIBITED
growth inhibition in vitro [13]: INHIBITED
vascular reactivity (capillary regression) ([1]; 0.001 μg applied): +/-
vascular reactivity (capillary regression) ([1]; 0.01 μg applied): +
vascular reactivity (capillary regression) ([1]; 0.1 μg applied): +
vascular reactivity (capillary regression) ([1]; 1 μg applied): +
vascular reactivity (capillary regression) ([1]; 10 μg applied): +
Chick embryo diss. assay, Minimum Effective Concentration [1]: 1 µg
effect on chick embryo vessels / blood ([1]; in words): causes vitelline capillary regression with about the same potency as squalamine
growth suppression / viability of smooth muscle cells [14]: maintained in a quiescent state in the presence of this steroid at about 11 μg/ml without loss of viability; also recorded: suppress in vitro the growth of human coronary artery smooth muscle
persistence of spontaneous beating (Xenopus laevis heart): up to 24 hours
effect on B16 tumor volume, single agent and combination (B16 melanoma): no significant impact on tumor volume
duration / reversibility of arterial effect [15]: followed for 30 minutes, without significant change; also recorded: readily reversible by standard pharmacological practice

CC(CCC(=O)C(C)(C)OS(=O)(=O)O)[C@H]1CCC2C3C(CC[C@@]21C)[C@@]1(C)CC[C@H](NCCCNCCCCN)C[C@@H]1C[C@H]3O (stereo partly drawn) [FX 1A]
stability in water (Chemical stability): undergo conversion to another molecule (FX 1B) rapidly in water
